These results are taken from the supplement of paper PMC11061612.

Common to all, as to assay: combination Emax (second highest fraction inhibited in the dose matrix, 72 h); higher = more inhibition; extreme values may be limits of the assay
The subject of assay [1] is BFTC-905 (Bladder Carcinoma). In outline:
(§1)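 Cell lines in DMEM/F12 or RPMI with 10% FBS were plated in 1536-well plates, held 24 hours at 37°C, 5% CO2, then given two-drug dose matrices for 72 hours (DMSO typically 0.2%). Viability was read by CellTiter-Glo 2.0 luminescence and scaled as inhibition from 0 (vehicle wells) to 1 (blank wells). Combination Emax is the second-highest inhibition in the matrix; Bliss excess is observed combination effect minus expected EA + EB − EA·EB, EA and EB being single-agent effects.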

Assay [2] concerns BL-41 (Burkitt's Lymphoma). In a few lines:
as §1

For assay [3], the system named is CAMA-1 (Breast Carcinoma). In outline:
as §1

In assay [4] the test system is COLO-678 (Colorectal Carcinoma). In a few lines: as §1
Assay [5] relates to DND-41 (T-Lymphoblastic Leukemia). In a few lines:
as §1

The test system of assay [6] is EVSA-T (Breast Carcinoma). In a few lines:
as §1

The test system of assay [7] is KCL-22 (Chronic Myelogenous Leukemia). In a few lines:
as §1

In assay [8] the test system is KYSE-180 (Esophageal Squamous Cell Carcinoma). In a few lines:
as §1

The next assay has as its system LN-18 (Glioblastoma). In a few lines:
as §1

In the next assay the test system is MEL-JUSO (Melanoma). In outline:
as §1

For assay [9], the system named is MKN28 (Gastric Carcinoma). In outline: as §1
Assay [10] relates to MS751 (Cervical Carcinoma). In outline: as §1
In assay [11] the test system is NCI-H1792 (Lung Adenocarcinoma). In a few lines:
as §1

A further assay concerns NCI-H2818 (Mesothelioma). In outline:
as §1

Assay [12] deals with NCI-H847 (Small Cell Lung Carcinoma). In a few lines:
as §1

For assay [13], the system named is PANC-08-13 (Pancreatic Carcinoma). In a few lines:
as §1

For assay [14], the system named is SW837 (Colorectal Carcinoma). In a few lines: as §1
For the next assay, the system named is TC-71 (Ewing's Sarcoma). In outline: as §1
The test system of another assay is U251 (Low Grade Glioma). In outline: as §1
The subject of the next assay is WM-115 (Melanoma). In outline: as §1

Regarding `Cc1c2c(nn1C)CSCc1cc(n(C)n1)CSc1cc(c3ccccc3c1)OCCCc1c(C(=O)O)n(C)c3c-2c(Cl)ccc13` [AZD5991] + Cc1cc2ncnn2cc1Nc1ncc2c(n1)n(C1CCOCC1)c(=O)n2C [AZD7648] (first compound max 1 µM, 7x7, partner max 10 µM), the “combination Emax” value in [1] was 0.211; in [2], 1; in assay [3], 0.742; in assay [4] it was 0.152; in assay [5], 0.164; in assay [6] it was 1. For the same compound, the “combination Emax” value in [7] came to 0.94; in assay [8], 0.9; in the assay on LN-18 (Glioblastoma), 0.35; in the assay with MEL-JUSO (Melanoma) it was 0.277; in [9], 0.25; in assay [10] it was 0.829. The “combination Emax” value in [11] was 0.441; with NCI-H2818 (Mesothelioma) it was 0.48; in assay [12], 0.877; in assay [13], 0.238; in [14], 0.128; with TC-71 (Ewing's Sarcoma), 0.48. The “combination Emax” value in the assay with U251 (Low Grade Glioma) was found to be 0.229; with WM-115 (Melanoma), 0.357.

As for `CC1(C)CCC(CN2CCN(c3ccc(C(=O)NS(=O)(=O)c4ccc(NCC5CCOCC5)c([N+](=O)[O-])c4)c(Oc4cnc5[nH]ccc5c4)c3)CC2)=C(c2ccc(Cl)cc2)C1` [Venetoclax] + CCN(CCO)CCCOc1ccc2c(Nc3cc(CC(=O)Nc4cccc(F)c4)[nH]n3)ncnc2c1 [AZD2811] (first compound max 1 µM, 7x7, partner max 1 µM), the “combination Emax” value in assay [1] was determined as 0.354; in assay [2], 0.604; in [3], 0.224; in [4], 0.245; in assay [5], 0.94; in assay [6] it was 0.427. Moreover, the “combination Emax” value in [7] came out at 0.376; in assay [8] it was 0.233; with LN-18 (Glioblastoma), 0.488; with MEL-JUSO (Melanoma), 0.287; in assay [9] it was 0.221; in assay [10], 0.424. In addition, the “combination Emax” value in assay [11] is 0.216; in the assay on NCI-H2818 (Mesothelioma), 0.251; in assay [12], 1; in assay [13], 0.212; in assay [14] it was 0.2; in the assay on TC-71 (Ewing's Sarcoma), 0.88. In addition, the figures for the “combination Emax” value in the assay with U251 (Low Grade Glioma) and with WM-115 (Melanoma) were 0.274 and 0.211, respectively.

Turning to `C=CCn1c(=O)c2cnc(Nc3ccc(N4CCN(C)CC4)cc3)nc2n1-c1cccc(C(C)(C)O)n1` [AZD1775] + O=C(c1cc(Cc2n[nH]c(=O)c3ccccc23)ccc1F)N1CCN(C(=O)C2CC2)CC1 [Olaparib] (first compound max 1 µM, partner max 10 µM), the “combination Emax” value in [1] came out at 0.55; in assay [2] it was 1; in [3], 0.149; in assay [4], 0.205; in assay [5], 0.878; in [6], 0.289. For the same compound, the “combination Emax” value came to 0.882 in assay [7]; 0.774 in [8]; 0.217 in the assay on LN-18 (Glioblastoma); 0.401 in the assay on MEL-JUSO (Melanoma); 0.573 in [9]; 0.215 in [10]. The “combination Emax” value was found to be 0.707 in [11]; 0.415 with NCI-H2818 (Mesothelioma); 1 in assay [12]; 0.329 in assay [13]; 0.39 in [14]; 0.583 in the assay on TC-71 (Ewing's Sarcoma). For the same compound, the figures for the “combination Emax” value with U251 (Low Grade Glioma) and in the assay with WM-115 (Melanoma) were 0.442 and 0.259, respectively.

Take `Cc1c2c(nn1C)CSCc1cc(n(C)n1)CSc1cc(c3ccccc3c1)OCCCc1c(C(=O)O)n(C)c3c-2c(Cl)ccc13` [AZD5991] + C[C@@H](Nc1cc(F)cc(F)c1)c1cc(C(=O)N(C)C)cc2c(=O)cc(N3CCOCC3)oc12 [AZD8186] (first compound max 1 µM, 7x7, partner max 3 µM): the “combination Emax” value in [1] came out at 0.289; in assay [2], 1; in assay [3] it was 0.98; in [4], 0.278; in assay [5], 0.0838; in assay [6] it was 1. Also, the “combination Emax” value in assay [7] stood at 0.87; in [8], 0.877; with LN-18 (Glioblastoma) it was 0.573; in the assay on MEL-JUSO (Melanoma), 0.527; in [9] it was 0.232; in assay [10] it was 0.851. Further, the “combination Emax” value stood at 0.441 in assay [11]; 0.387 with NCI-H2818 (Mesothelioma); 0.792 in assay [12]; 0.263 in assay [13]; 0.188 in assay [14]; 0.573 in the assay on TC-71 (Ewing's Sarcoma). The “combination Emax” value in the assay on U251 (Low Grade Glioma) turned out to be 0.226; in the assay with WM-115 (Melanoma), 0.656.

On to `CC1(C)CCC(CN2CCN(c3ccc(C(=O)NS(=O)(=O)c4ccc(NCC5CCOCC5)c([N+](=O)[O-])c4)c(Oc4cnc5[nH]ccc5c4)c3)CC2)=C(c2ccc(Cl)cc2)C1` [Venetoclax] + C=CCn1c(=O)c2cnc(Nc3ccc(N4CCN(C)CC4)cc3)nc2n1-c1cccc(C(C)(C)O)n1 [AZD1775] (first compound max 1 µM, partner max 1 µM), for which the “combination Emax” value in assay [1] is 0.799; in [2] it was 1; in [3], 0.38; in assay [4] it was 0.328; in assay [5], 1; in assay [6], 0.329. The “combination Emax” value turned out to be 0.943 in [7]; 0.739 in [8]; 0.555 in the assay on LN-18 (Glioblastoma); 0.521 in the assay on MEL-JUSO (Melanoma); 0.501 in [9]; 0.261 in assay [10]. Also, the “combination Emax” value is 0.828 in [11]; 0.331 in the assay on NCI-H2818 (Mesothelioma); 0.992 in assay [12]; 0.328 in [13]; 0.453 in assay [14]; 0.424 with TC-71 (Ewing's Sarcoma). Further, the results for the “combination Emax” value in the assay with U251 (Low Grade Glioma) and with WM-115 (Melanoma) were 0.297 and 0.27, respectively.
